Entries after “also recorded” stand apart in the source; their conditions may differ. Where a name gives a salt, the structure may show the parent alone. Where a SMILES comes first, the peptide text is derived from it. [ ]: non-standard residue; d: D form. The star is where a group is joined. Dolaproine = CO[C@@H]([C@@H]1CCCN1)[C@@H](C)C(=O)O; Dil = CC[C@H](C)[C@H](NC)[C@@H](CC(=O)O)OC; X1 = C[C@@H](N*)[C@@H](O)c1ccccc1; NMeV = CN[C@H](C(=O)O)C(C)C
Tests used:
[1] = test system: SK-MEL-5 human melanoma xenograft; assay: SK-MEL-5 human melanoma xenograft in athymic mice; assay type: in vivo
Procedure: (§1) The tumor inhibitory activity of the CR011-MMAE immunoconjugate was measured in an anti-tumor xenograft model using athymic mice, according to published methods (see Geran et al., Cancer Chemother. Rep. 3:1-104 (1972)). […] When tumors became established (10-20 days), the animals were pair-matched into groups (n=6 mice/group), and treatment was administered by intravenous injection (tail vein).
(§2) The SK-MEL-2 human melanoma (ATCC #HTB-68) was derived from a metastatic site (skin of thigh) of a person with malignant melanoma, and the SK− MEL-5 human melanoma (ATCC #HTB-70) was derived from a metastatic site (axillary lymph node) of a person with malignant melanoma (see Fogh et al., J. Natl. Cancer Inst. 59: 221-226 (1977)). Both cell lines were obtained from the American Type Culture Collection.
(§3) The effects of treatment were monitored by repetitive tumor measurements across 2 diameters with Vernier calipers; tumor size (in mg) was calculated using a standard formula, (W^2×L)/2, assuming a specific gravity of 1.0. Tumor size and body weights were assessed twice weekly. Mice were examined daily, however, and moribund animals were humanely euthanized if clinical indications of excessive pain or distress were noted (i.e., prostration, hunched posture, paralysis/paresis, distended abdomen, ulcerations, abscesses, seizures, and/or hemorrhages) Animals with tumors exceeding 2,000 mg were removed from the study and euthanized humanely.
Soon after the commencement of treatment with paclitaxel, however, significant tumor growth inhibition was observed (P≦0.039) at day 3 after treatment began, and this anti-tumor effect continued, producing 100% growth inhibition (stasis). The responses of SK-MEL-5-bearing test animals to vinblastine and paclitaxel were short-lived. After cessation of treatment at the maximally tolerated doses, tumors resumed rapid, progressive growth.

[2] = test system: SK-MEL-2 human melanoma xenograft; assay: SK-MEL-2 human melanoma xenograft in athymic mice; assay type: in vivo
Procedure: Five- to 6-week old athymic mice (CD-1 nu/nu females), used for human tumor xenografts, were obtained from Harlan Laboratories (Indianapolis, Ind.). Animals were housed in specific pathogen-free conditions, according to the guidelines of the Association for Assessment and Accreditation of Laboratory Animal Care International (AAALAC International). Test animals were provided pelleted food and water ad libitum and kept in a room with conditioned ventilation (HVAC), temperature (22°±2° C.), relative humidity (55%±15%), and photoperiod (12 hr). All studies were carried out with approved institutional animal care and use protocols.
as §1, §2, §3
No apparent or statistically significant anti-tumor effects were observed. […] In preliminary studies, tumor regression was complete and was not followed by regrowth of the tumor despite lengthy observation periods (up to 200 days).

UACC-62 = assay: Anti-GPNMB antibody mediated indirect cell killing (saporin secondary conjugate, colony count); assay type: cell-based, human; conditions: 5-FU 600 uM; antibodies with saporin toxin-conjugated secondary antibody
Procedure: UACC-62, a GPNMB antigen expressing cell line, and TK10, a non-expressing cell line were plated onto flat bottom 96-well tissue culture plates (Becton Dickinson, Franklin Lakes, N.J., USA) at a density of 3000 cells per well. Once the cells reached ˜25% confluency, 100 ng/well of secondary antibody-toxin conjugate (goat anti-human IgG-saporin; Advanced Targeting Systems, San Diego, USA, HUM-ZAP; cat #IT-22) was added. Anti-GPNMB MAbs 2.10.2, 2.22.1, 1.15.1 or isotype control mAb (pK16.3) were added to each well at a final concentration of 10 or 50 μg/mL. An anti-EGFR monoclonal antibody (MS-269-PABX, NeoMarkers, Fremont, Calif., USA) was used as a positive primary antibody control. Chemotherapy reagent 5-FU at 600 uM was used as a positive reagent control. On day 5, the cells were trypsinized, transferred to 6-well tissue culture plates and incubated at 37° C. Plates were examined daily and between 8-10 days, all plates were Giemsa stained and colonies were counted.

CG56972/GPNMB = target: T1, CG56972/GPNMB (Homo sapiens, UniProt Q14956); assay: FACS binding of CR011 IgG1 and IgG2 on SK-MEL-2 cells
T1 construct: endogenous in cells; host or cells: UACC-62 and a panel of melanoma lines (A5); SK-MEL-2 (A52); SK-Mel-5 (A63)
T1 sequence (Q14956 23-572): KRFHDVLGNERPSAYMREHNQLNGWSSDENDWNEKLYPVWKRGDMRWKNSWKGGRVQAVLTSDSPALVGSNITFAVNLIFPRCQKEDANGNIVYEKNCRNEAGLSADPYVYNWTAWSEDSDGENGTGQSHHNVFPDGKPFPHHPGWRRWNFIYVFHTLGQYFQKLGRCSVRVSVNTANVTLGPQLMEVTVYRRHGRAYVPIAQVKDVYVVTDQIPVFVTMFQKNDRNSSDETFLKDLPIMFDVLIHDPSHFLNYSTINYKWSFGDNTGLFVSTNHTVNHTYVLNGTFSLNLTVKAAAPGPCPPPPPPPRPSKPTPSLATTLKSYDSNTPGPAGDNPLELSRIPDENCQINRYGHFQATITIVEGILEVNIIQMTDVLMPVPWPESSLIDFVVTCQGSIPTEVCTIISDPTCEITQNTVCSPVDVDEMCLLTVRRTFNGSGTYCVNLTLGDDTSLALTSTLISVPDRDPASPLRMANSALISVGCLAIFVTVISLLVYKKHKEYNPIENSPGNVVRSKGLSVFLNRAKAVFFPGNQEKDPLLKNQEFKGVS

SK-Mel-2 cells = assay: ADCC assay with human PBMC (DELFIA EuTDA cytotoxicity); assay type: cell-based; conditions: 30 to 100 fold PBMC; 2, 5, 10 μg/200 μl mAb
Procedure: Human PBMC were isolated from whole blood using a Ficoll-Plaque. Briefly, in a 50 mL tube, 15 mL of PBS was added to 20 mL of whole blood which was underlayed with 10 mL Ficoll-Plaque and the tube was centrifuged at 2000 RPM. Mononuclear cells were collected from the interface and washed 3 times with PBS. The ADCC assay was carried out in a 96 well plate using a fluorescence assay for cytolysis from Perkin-Elmer (DELFIAEuTDA Cytotoxic assay). The procedure is based on loading target cells with a fluorescence enhancing ligand (BATDA, bis (acetoxymethyl) terpyridine—dicarboxylate). The hydrophic ligand penetrates the membrane quickly. Within the cell the esterbonds are hydrolyzed to form a hydrophilic ligand (TDA, terpyridine—dicarboxylic acid) which can no longer pass through the membrane. After cytolysis the ligand is released and introduced to the Europium solution. The europium and the ligand form a highly fluorescent and stable chelate (EuTDA). Fluorescence intensity are recorded using excitation and emission wavelengths as λex=340 nm and λem=613 nm, respectively.

Question: For `CC[C@]1(O)C[C@@H]2CN(CCc3c([nH]c4ccccc34)[C@@](C(=O)OC)(c3cc4c(cc3OC)N(C)[C@H]3[C@@](O)(C(=O)OC)[C@H](OC(C)=O)[C@]5(CC)C=CCN6CC[C@]43[C@@H]65)C2)C1` [Vinblastine, vinblastine sulfate, reference compound], which “anti-tumor effect (in words)” value ([1]; i.v., CR011-vcMMAE 1.25 to 20 mg/kg q4d×4, vinblastine […] q4d×4) is on record?
Answer: Its value is “noticeable, but not significant tumor growth inhibition”.

Question: What about the “anti-tumor effect (in words)” value ([2]; i.v., CR011-vcMMAE 20, 10, 5 or 2.5 mg/kg q4d×4, vinblastine […] q4d×4) of the same molecule?
Answer: Its value is “very slight, but not significant, anti-tumor effect”.

Question: With `O=c1[nH]cc(F)c(=O)[nH]1` [Mab 5-FU] as the molecule, how does the “effect on UACC-62 cells (in words)” value (UACC-62) read?
Answer: The value was “complete killing”.

Question: What does the source list for `CC(=O)O[C@H]1C(=O)[C@@]2(C)[C@H]([C@H](OC(=O)c3ccccc3)[C@]3(O)C[C@H](OC(=O)[C@H](O)[C@@H](NC(=O)c4ccccc4)c4ccccc4)C(C)=C1C3(C)C)[C@]1(OC(C)=O)CO[C@@H]1C[C@@H]2O` [Paclitaxel, paclitaxel, reference compound]?
Answer: growth inhibition (stasis) ([1]; paclitaxel 24 mg/kg i.v. q2d×4): 100%; long-term, tumor-free survivor ([1]; paclitaxel group): One; growth inhibition (tumor stasis) ([2]; paclitaxel i.v. 24 mg/kg q2d×4, for approximately 2 weeks after treatment commenced): 100%

Question: Which “tumor growth inhibition by components of the immunoconjugate (in words)” value ([2]; doses identical to that contained in the intact immunoconjugate (5 mg/kg q4d×4)) does the source give for `CC[C@H](C)[C@@H]([C@@H](CC(=O)N1CCC[C@H]1[C@H](OC)[C@@H](C)C(=O)N[C@H](C)[C@@H](O)c1ccccc1)OC)N(C)C(=O)[C@@H](NC(=O)[C@@H](NC)C(C)C)C(C)C` [monomethylauristatin E, reference compound] (H-[NMeV]V[Dil][Dolaproine]-X1) here?
Answer: The value was “lack of responses; also recorded: lack of tumor growth inhibition”.

Question: Which “FACS shift on SK-MEL-2 cells vs isotype control mAbs” value (CG56972/GPNMB) does the source give for “CR011 IgG1 mAb: CR011 mAb 1.15.1 switched to IgG1 constant region; heavy chain SEQ ID NO: 395” here?
Answer: Its value is “comparable FACS shifts”.

Question: And the “cytolysis of SK-MEL-2 cells (ADCC)” value (SK-Mel-2 cells)?
Answer: The value was “caused cytolysis of SK-MEL-2 cells in a dose dependent manner”.
